{"source": "paper PMC10849753", "about": "“Antiproliferative activity of platinum(II) and copper(II) complexes containing novel biquinoxaline ligands” (Metallomics: Integrated Biometal Science, 2024)", "key": {"CHO-K1 cells": {"system": "CHO-K1 cells", "assay": "MTT cell viability assay (non-cancer control)", "format": "cell-based, Chinese hamster", "protocol": "Cell culture growth conditions: Selected cancer cell lines from different origins, including human glioblastoma A172 (CRL-1620), LN229 (CRL-2611), U87 (HTB-14) cell lines, human cervix HeLa (ATCC, CCL-2), human breast MDA -231 (HTB-26), human prostate PC-3 (ATCC, CRL-1435), human lung A-549 (CCL-185), and non-cancer Chinese hamster ovary CHOK1 cell line (CCL61) (which was used as control) were purchased from American Type Culture Collection (ATCC, USA). These cultures were grown in Dulbecco's modified Eagle's medium-F12 (DMEM/F12, #D0547, Sigma-Aldrich) supplemented with 5% fetal bovine serum (#10500, Gibco) and 1% antibiotic-antimycotic (#15240, Gibco), and incubated at 37°C and 5% CO2. They were harvested and used for the following assays after reaching 70–80% confluency.\nThe used cell lines (A172, LN229, U87, HeLa, MDA-231, PC-3, A549, and CHO-K1) were harvested and seeded (6 × 10^3 cells/well) into the 96-well plates and incubated at 37°C and 5% CO2 for 24 h. After that, the synthesized Cu(II) and Pt(II) complexes, at a concentration range of 6.25 to 100 μM in DMEM-F12, were added to the cell monolayers and incubated at 37°C and 5% CO2 for 24, 48, and 72 h. The dose–response relationships of the synthesized complexes were determined by using an MTT colorimetric agent (3-[4,5-dimethylthiazol-2-yl]-2,5-diphenyltetrazolium bromide, #M5655, Sigma-Aldrich), which is reduced by the mitochondrial enzymes of the metabolically active live cells and converted into a purple formazan product. The MTT stock solution was later dissolved in a phosphate buffer solution (PBS, 5 mg/ml, w/v) and, then, 5 μg/ml of MTT in DMEM was added into each well and incubated at 37°C and 5% CO2 for 4 h. DMSO (#D 8418, Sigma-Aldrich), as a dissolving solution for formazan crystals, was added into each well and placed in a shaker for 2 h. The absorbance at a test wavelength of 570 nm and a reference wavelength of 630 nm was measured on a microplate reader."}, "U87 cells": {"system": "U87 cells", "assay": "Apoptosis, TUNEL assay", "format": "cell-based, human", "details": "U87, 50 and 100 μM, 24 h", "protocol": "(§1) The sensitive U87 and HeLa cell lines, selected according to the results of the IC50 values of the examined Cu(II) and Pt(II) complexes, were seeded at a seeding cell number of 5 × 10^4 cells on the 12 mm round cover slips placed in the 24-well plate and incubated at 37°C and 5% CO2 for 24 h. The following day, the Cu(dpq)Cl2, Cu(dtq)Cl2, Pt(dpq)Cl2 and Pt(dtq)Cl2 complexes were freshly prepared and added at a range of 50 and 100 μM to the cell monolayers. After a 24 h incubation time, the cell monolayers were fixed with 4% paraformaldehyde for 15 min at room temperature and, then, the terminal deoxynucleotidyl transferase (TdT)-mediated dUTP nick end labeling (TUNEL) method was applied to detect the DNA damage associated with apoptosis. A commercial assay kit, In Situ Cell Death Detection Kit (Roche, #11767291910), was used for this purpose in accordance to the manufacturer's instructions. The experiment was repeated twice with the tested cell lines, and images were recorded with using a Leica DMI 6000 fluorescence microscope with 40× magnification."}, "HeLa cells [1]": {"system": "HeLa cells", "assay": "Apoptosis, TUNEL assay", "format": "cell-based, human", "details": "50 and 100 μM, 24 h", "protocol": "as §1"}, "[2]": {"target": "T1, human serum albumin (HSA) (Homo sapiens, UniProt P02768)", "T1 sequence (P02768 25-609)": "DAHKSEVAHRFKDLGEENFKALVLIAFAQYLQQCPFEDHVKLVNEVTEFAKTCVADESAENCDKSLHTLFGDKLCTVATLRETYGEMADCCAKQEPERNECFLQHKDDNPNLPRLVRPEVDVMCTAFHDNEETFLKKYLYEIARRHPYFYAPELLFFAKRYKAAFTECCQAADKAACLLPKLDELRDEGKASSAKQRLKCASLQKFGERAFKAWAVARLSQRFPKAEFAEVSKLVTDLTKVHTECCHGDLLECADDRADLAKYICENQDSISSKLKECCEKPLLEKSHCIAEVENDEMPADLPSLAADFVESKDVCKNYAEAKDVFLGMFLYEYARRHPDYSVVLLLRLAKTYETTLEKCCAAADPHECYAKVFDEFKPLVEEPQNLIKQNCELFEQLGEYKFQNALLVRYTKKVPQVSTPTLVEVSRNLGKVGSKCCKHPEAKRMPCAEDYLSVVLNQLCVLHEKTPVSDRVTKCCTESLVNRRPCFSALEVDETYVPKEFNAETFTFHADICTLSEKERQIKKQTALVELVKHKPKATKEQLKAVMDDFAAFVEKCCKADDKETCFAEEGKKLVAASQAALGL", "assay": "UV titration with HSA", "details": "binding to HSA, 310-340 K", "protocol": "The change in the electronic absorption spectrum of the complexes in the presence and the absence of CT-DNA was followed using an HP Agilent8453 Spectrophotometer. During the measurements, the concentration of the compounds was kept constant [Cu(tpbq)Cl2 = 3.0 × 10^−3 M; Cu(ttbq)Cl2 = 0.50 × 10^−3 M; Pt(tpbq)Cl2 = 3.0 × 10^−3 M; Pt(ttbq)Cl2 = 3.0 × 10^−3 M)], while the CT-DNA concentration was changed depending on the R (R=[DNA]/[complex]) value of 0 to 10. […] The optimal incubation time was determined as 30 min for Cu(ttbq)Cl2, 60 min for Pt(tpbq)Cl2, and 45 min for Cu(tpbq)Cl2 and Pt(ttbq)Cl2 at 37°C spectroscopically. […] The optimal incubation time for HSA binding titrations was determined as 30 min for Cu(ttbq)Cl2 and Pt(ttbq)Cl2, and 60 min for Cu(tpbq) Cl2 and Pt(tpbq)Cl2 spectroscopically.[37]"}, "[3]": {"target": "T1, human serum albumin (HSA)", "assay": "HSA fluorescence quenching titration", "format": "binding", "set-up": "unit not given here", "details": "1 μM HSA, 0-50 μM complexes", "protocol": "Tests involving fluorescence titration were conducted by maintaining the concentration of 1 μM HSA and changing the concentrations of the complexes between 0 and 50 μM in 5 mM Tris HCl buffer. The fluorescence spectral measurements were made at […] to 500 nm after exciting the solution at 280 nm."}, "HeLa cells [4]": {"system": "HeLa cells", "assay": "Matrigel invasion analysis", "format": "cell-based, human", "details": "6.25 and 12.5 μM, 24 h, vs negative control", "protocol": "The analysis was completed with U87 and HeLa cell lines to assess the metastatic potential of tumor cells using transwell inserts with an 8 μm pore size polycarbonate membrane (Corning Costar, Cambridge, MA, USA) coated with 1/5 of Matrigel (Beckton Dickinson, Bedford, MA, USA) and air-dried at room temperature. After seeding the U87 and HeLa cell lines (3 × 10^5cells/insert), the complex concentrations were selected as 6.25 or 12.5 μM and incubated at 37°C in a humidified incubator with 5% CO2 for 24 h. The cell monolayers in the transwell inserts were fixed with ice-cold methanol and stained with 0.05% crystal violet for the analysis. The invasion of the cells to the basolateral side of the inserts was investigated using a light microscope with 40× magnification."}, "HeLa cells [5]": {"system": "HeLa cells", "assay": "In vitro scratch wound healing (cell migration)", "format": "cell-based, human", "details": "6.25 and 12.5 μM, 24, 48, and 72 h", "protocol": "In vitro scratch wound healing experiments were carried out with HeLa cell lines (3 × 10^4 cells/insert), which were seeded into 6-well plates. When they reached 80–90% confluence, scratches were created using AutoScratch (BioTek) in a straight line. The same Cu(II) or Pt(II) complex concentrations (6.25 or 12.5 μM) were used and incubated in the presence of 5% CO2 at 37°C in a humidified incubator for 24, 48, and 72 h. Images were obtained at the beginning of the exposure (time 0), and repeated at the end of 24, 48, and 72 h incubation periods."}}}
{"smiles": "[Cl][Cu][Cl].c1ccc(-c2nc3ccc(-c4ccc5nc(-c6ccccn6)c(-c6ccccn6)nc5c4)cc3nc2-c2ccccn2)nc1", "note": "[Cu(tpbq)Cl2]", "values": [{"measurement": "IC50", "setting": "CHO-K1 cells; CHO-K1, 24 h exposure", "value": "> 100", "unit": "µM"}, {"measurement": "IC50", "setting": "CHO-K1 cells; CHO-K1, 48 h exposure", "value": "> 100", "unit": "µM"}, {"measurement": "IC50", "setting": "CHO-K1 cells; CHO-K1, 72 h exposure", "value": "> 100", "unit": "µM"}, {"measurement": "apoptosis (DNA fragmentation, TUNEL)", "setting": "U87 cells", "value": "none of which induced any apoptosis"}, {"measurement": "apoptosis (DNA fragmentation, TUNEL)", "setting": "HeLa cells [1]", "value": "none of which induced any apoptosis"}, {"measurement": "ΔG^o (standard Gibbs free energy change)", "setting": "[2]", "value": -19800, "unit": "J"}, {"measurement": "ΔH^o (standard enthalpy change)", "setting": "[2]", "value": 120800, "unit": "J"}, {"measurement": "ΔS^o (standard entropy change)", "setting": "[2]", "value": 458.15, "unit": "J/K"}, {"measurement": "KSV (Stern–Volmer quenching constant)", "setting": "[3]", "value": 0.0059}, {"measurement": "anti-invasive effect", "setting": "HeLa cells [4]", "value": "did not have any anti-invasive effect"}]}
{"smiles": "[Cl][Cu][Cl].c1csc(-c2nc3ccc(-c4ccc5nc(-c6cccs6)c(-c6cccs6)nc5c4)cc3nc2-c2cccs2)c1", "note": "[Cu(ttbq)Cl2]", "values": [{"measurement": "IC50", "setting": "CHO-K1 cells; CHO-K1, 24 h exposure", "value": "> 100", "unit": "µM"}, {"measurement": "IC50", "setting": "CHO-K1 cells; CHO-K1, 48 h exposure", "value": "> 100", "unit": "µM"}, {"measurement": "IC50", "setting": "CHO-K1 cells; CHO-K1, 72 h exposure", "value": "> 100", "unit": "µM"}, {"measurement": "apoptosis (DNA fragmentation, TUNEL)", "setting": "U87 cells", "value": "apoptotic potential of the U87 cells was observed"}, {"measurement": "apoptosis (DNA fragmentation, TUNEL)", "setting": "HeLa cells [1]", "value": "none of which induced any apoptosis"}, {"measurement": "ΔG^o (standard Gibbs free energy change)", "setting": "[2]", "value": -27900, "unit": "J"}, {"measurement": "ΔH^o (standard enthalpy change)", "setting": "[2]", "value": 53100, "unit": "J"}, {"measurement": "ΔS^o (standard entropy change)", "setting": "[2]", "value": 258.51, "unit": "J/K"}, {"measurement": "KSV (Stern–Volmer quenching constant)", "setting": "[3]", "value": 0.0720}, {"measurement": "migration of HeLa cells toward the scratch zone", "setting": "HeLa cells [5]", "value": "declined"}, {"measurement": "anti-invasive effect", "setting": "HeLa cells [4]", "value": "high anti-invasive effects"}]}
{"smiles": "[Cl][Pt][Cl].c1ccc(-c2nc3ccc(-c4ccc5nc(-c6ccccn6)c(-c6ccccn6)nc5c4)cc3nc2-c2ccccn2)nc1", "note": "[Pt(tpbq)Cl2]", "values": [{"measurement": "IC50", "setting": "CHO-K1 cells; CHO-K1, 24 h exposure", "value": "> 100", "unit": "µM"}, {"measurement": "IC50", "setting": "CHO-K1 cells; CHO-K1, 48 h exposure", "value": "86.6 ± 1.98", "unit": "µM"}, {"measurement": "IC50", "setting": "CHO-K1 cells; CHO-K1, 72 h exposure", "value": "77.5 ± 0.87", "unit": "µM"}, {"measurement": "apoptosis (DNA fragmentation, TUNEL)", "setting": "U87 cells", "value": "apoptotic potential of the U87 cells was observed"}, {"measurement": "apoptosis (DNA fragmentation, TUNEL)", "setting": "HeLa cells [1]", "value": "none of which induced any apoptosis"}, {"measurement": "ΔG^o (standard Gibbs free energy change)", "setting": "[2]", "value": -31400, "unit": "J"}, {"measurement": "ΔH^o (standard enthalpy change)", "setting": "[2]", "value": 22900, "unit": "J"}, {"measurement": "ΔS^o (standard entropy change)", "setting": "[2]", "value": 174.97, "unit": "J/K"}, {"measurement": "KSV (Stern–Volmer quenching constant)", "setting": "[3]", "value": 0.0261}, {"measurement": "migration of HeLa cells toward the scratch zone", "setting": "HeLa cells [5]", "value": "declined"}, {"measurement": "anti-invasive effect", "setting": "HeLa cells [4]", "value": "high anti-invasive effects"}]}
{"smiles": "[Cl][Pt][Cl].c1csc(-c2nc3ccc(-c4ccc5nc(-c6cccs6)c(-c6cccs6)nc5c4)cc3nc2-c2cccs2)c1", "note": "[Pt(ttbq)Cl2]", "values": [{"measurement": "IC50", "setting": "CHO-K1 cells; CHO-K1, 24 h exposure", "value": "> 100", "unit": "µM"}, {"measurement": "IC50", "setting": "CHO-K1 cells; CHO-K1, 48 h exposure", "value": "> 100", "unit": "µM"}, {"measurement": "IC50", "setting": "CHO-K1 cells; CHO-K1, 72 h exposure", "value": "> 100", "unit": "µM"}, {"measurement": "apoptosis (DNA fragmentation, TUNEL)", "setting": "U87 cells", "value": "none of which induced any apoptosis"}, {"measurement": "apoptosis (DNA fragmentation, TUNEL)", "setting": "HeLa cells [1]", "value": "apoptosis on HeLa cells was only observed"}, {"measurement": "ΔG^o (standard Gibbs free energy change)", "setting": "[2]", "value": -28600, "unit": "J"}, {"measurement": "ΔH^o (standard enthalpy change)", "setting": "[2]", "value": 33200, "unit": "J"}, {"measurement": "ΔS^o (standard entropy change)", "setting": "[2]", "value": 198.00, "unit": "J/K"}, {"measurement": "KSV (Stern–Volmer quenching constant)", "setting": "[3]", "value": 0.0589}, {"measurement": "migration of HeLa cells toward the scratch zone", "setting": "HeLa cells [5]", "value": "declined"}, {"measurement": "anti-invasive effect", "setting": "HeLa cells [4]", "value": "higher potency to prevent the invasion"}]}
